Patent publication US20100016247A1, “USING BUDDING YEAST TO SCREEN FOR INHIBITORS OF AURORA KINASES” (FLORIDA STATE UNIVERSITY RESEARCH FOUNDATION, priority 2008, published 2010)
Where two headings read alike, the source gives them in different places.

Legend:
IM9/Bcl-2 cells = conditions: cited from earlier work
wild-type yeast cells = test: Growth of wild-type yeast cultures by OD600; assay type: cell-based, Saccharomyces cerevisiae; conditions: 25° C.
Description: (§1) Wild-type and ipl1-321 mutant yeast strains are used for this purpose. […] After incubation at about 25° C. for about 24 hrs, the growth of the yeast cultures in the presence of tested compounds is determined by measuring OD600.

H460 cells = conditions: cited from earlier work
IM-9 cells = conditions: cited from earlier work
A549 cells [1] = test: Hoechst 33342 staining, chromatin condensation and apoptotic body; assay type: cell-based, human; conditions: 5 μg/ml, 48 hours
Description: Hoechst 33342 is a fluorescence dye that can be embedded in DNA double helix and emit blue fluorescence when excited with UV light. Treated and untreated A549 cell samples with 5 μg/ml Jadomycin B for 48 hours are stained with 100 ng/ml Hoechst 33342 for 10 minutes in dark. Stained cells are visualized with a Nikon ECLIPSS TE2000-U fluorescence microscope (Japan) at 100× and 400× magnification. Apoptotic cells show brightly stained nuclei because of the chromosome condensation and the appeared apoptotic bodies.

[2] = tested on: phosphorylated histone H3 (Ser10) in A549 cells; test: Western blotting of phosphorylated histone H3 (Ser10); assay type: cell-based, human; conditions: 24 hr
Description: (§2) Cells are washed with cold PBS and whole-cell extracts are prepared with RIPA lysis buffer containing 60 μg/ml of PMSF. Equal amounts of protein (30 μg) are resolved with 15% SDS-PAGE. After transfer, the membranes are incubated overnight with primary antibodies (1:1000) against phosphorylated histone H3 (Ser10) (Cell Signaling Technology) and β-tubulin (Santa Cruz Biotechnology) at 4° C. The membranes are then incubated with HRP-conjugated goat anti-rabbit secondary antibody (Santa Cruz) at 1:200 followed by Chemiluminescence staining (Millipore).

[3] = tested on: phosphorylated histone H3 (Ser10) in HepG2 cells; test: as above; assay type: cell-based, human; conditions: HepG2, 10 μg/ml, 24 hours
Description: as §2, with “A549 cells in the exponential growth phase are treated with 0, 1.25, 2.5, 5, 7.5, or 10 μg/ml Jadomycin B for 24 hours, while Hela and HepG2 cells are treated with 0 or 10 μg/ml of Jadomycin B. Cells” for “Cells”

[4] = tested on: phosphorylated histone H3 (Ser10) in Hela cells; test: as above; assay type: cell-based, human; conditions: 10 μg/ml, 24 hours
Description: as §2, with “A549 cells in the exponential growth phase are treated with 0, 1.25, 2.5, 5, 7.5, or 10 μg/ml Jadomycin B for 24 hours, while Hela and HepG2 cells are treated with 0 or 10 μg/ml of Jadomycin B. Cells” for “Cells”

HepG2 cells = conditions: cited from earlier work
Hela cells = test: Cell growth assay (MTT, cell counting); assay type: cell-based, human; conditions: for growth inhibition by MTT assay: Hela, 48 hours
Description: (§3) A549, Hela and MCF-7 cell lines are cultured in 96-well tissue culture plates at a cell density of 5,000 cells per well in RPMI-I640 or MEM containing 10% fetus bovine serum and 2 mM L-glutamine. After attachment overnight, the medium is replaced and cells are incubated with increasing concentrations of Jadomycin B or its two derivatives, Jadomycin S and T (ranging from 10^−4 M to 10^−8 M). After treatment for 48 hours, 3-(4,5-dimethylthiazol-2-yl)-2,5-diphenyltetrazolium bromide (MTT) assays are carried out in triplication. The concentration-viability curves are fitted and IC50 values are determined. Cells are also plated at a cell density of 10,000 cells per well in six-well tissue culture plates. After attachment overnight, cells are treated with 0, 5, or 10 μg/ml Jadomycin B for 96 hours. Cells are detached every 24 hr by trypsinization to count the cell number. All experiments are repeated three times.

MCF-7 cells = test: Cell growth assay (MTT, cell counting); assay type: cell-based, human; conditions: for growth inhibition by MTT assay: MCF-7, 48 hours
Description: as §3

A549 cells [5] = test: Cell growth assay (MTT, cell counting); assay type: cell-based, human; conditions: for growth inhibition by MTT assay: A549, 48 hours
Description: as §3

[6] = molecular target: T1, purified recombinant human Aurora-B kinase (Homo sapiens, UniProt Q96GD4); test: In vitro Aurora-B kinase activity assay (ELISA kit); assay type: biochemical; conditions: for inhibitory effect on Aurora-B: same condition as FIG. 3A, data not shown
T1 construct: purchased Cell Signaling Technology
T1 sequence (Q96GD4 whole entry): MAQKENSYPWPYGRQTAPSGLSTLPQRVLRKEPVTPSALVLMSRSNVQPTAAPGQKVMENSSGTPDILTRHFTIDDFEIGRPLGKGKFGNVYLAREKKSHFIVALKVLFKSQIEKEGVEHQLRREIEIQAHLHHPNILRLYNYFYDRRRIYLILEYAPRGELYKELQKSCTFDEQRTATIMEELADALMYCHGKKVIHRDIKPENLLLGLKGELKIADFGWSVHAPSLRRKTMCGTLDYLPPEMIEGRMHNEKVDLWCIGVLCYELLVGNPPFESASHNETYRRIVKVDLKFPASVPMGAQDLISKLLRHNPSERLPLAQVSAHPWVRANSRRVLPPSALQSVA
Description: To determine the inhibition of Aurora-B kinase activity by Jadomycin B, an Aurora-B kinase activity assay kit (Cell Signaling Technology) is used according to the manufacturer's instruction. Briefly, 100 ng of purified recombinant human Aurora-B kinase is added to a 100 μl reaction mixture containing 1× kinase buffer and 25 μM cold ATP in the presence of different concentrations of Jadomycin B (ranging from 10^−4 M to 10^−10 M). After incubation at room temperature for 15 min, biotinylated peptide substrate (Cell Signaling Technology) is added to each reaction mixture at a final concentration of 1.5 μM, and the mixtures are further incubated for 30 min. A parallel control experiment is performed under the same conditions without Jadomycin B. The reaction is stopped by addition of 50 μM EDTA (pH 8). The 25 μl reaction mixture is then transferred to a streptavidin-coated 96-well plate (PerkinElmer, Inc) and incubated at room temperature for 60 min. After washing three times with PBS/T, the […] (Ser10) antibody (Cell Signaling Technology) is added to the plate for further incubation at 37° C. for 120 min. After washing, FITC-labeled secondary antibody (Santa Cruz) is added. After incubation at room temperature for 30 min, the plate is finally washed five times, and the fluorescence signal is determined with BMG Polarstar Galaxy (Germany) at 535 nm. The inhibition ratio by Jadomycin B at each concentration is calculated according to the following equation: % Inhibition=100×(1−countstreated/countscontrol). The inhibition curve is then fitted by Originpro7.5 program and the IC50 value of Jadomycin B is determined.
To determine the mode of inhibition of Aurora-B by Jadomycin B, the kinase activity is also examined in the presence of different concentrations of ATP (25, 50, 75, 100, and 200 μM). The inhibition ratio of Aurora-B kinase activity by Jadomycin B at various concentrations is calculated as described above and the inhibition curve is fitted. The IC50 value of Jadomycin B at each ATP concentration is then determined and a linear fit is made with all five IC50 values. The Ki is determined from the intercept of the plot of [ATP] versus IC50 values (IC50=Ki/Km[ATP]+Ki).

[7] = tested on: ipl1-321 mutant yeast cells; test: Growth of ipl1-321 mutant yeast cultures by OD600; assay type: cell-based, Saccharomyces cerevisiae; conditions: 25° C.; for growth inhibition of ipl1-321 cells: 10 μg/ml, 24 hr, vs untreated control
Description: as §1

A549 cells [8] = test: FACS analysis of apoptosis and cell cycle distribution; assay type: cell-based, human; conditions: 5 μg/ml
Description: A549 cells in exponential growth phase are treated with 0 or 5 μg/ml Jadomycin B for up to 48 hours. Cells collected at the indicated times are fixed and stained with Propidium Iodide (PI). FACS analysis is performed to determine the percentage of apoptotic cells and cell cycle distribution by using the EPICS XL flow cytometer and System II software.

For CC[C@H](C)[C@H]1C(=O)O[C@H]2c3cc(C)cc(O)c3C3=C(C(=O)c4c(O[C@H]5C[C@@H](O)[C@@H](O)[C@H](C)O5)cccc4C3=O)N12 [Jadomycin B], the inhibition of proliferation (IM9/Bcl-2 cells) is listed as “inhibits the proliferation”, the “growth inhibition of wild-type cells” value (wild-type yeast cells; 5 μg/ml, 24 hours) is listed as “little growth inhibition” and the “growth inhibition of wild-type cells” value (wild-type yeast cells; 10 μg/ml, 24 hr) is listed as “uninhibited”. For the same molecule, the “growth inhibition of wild-type cells” value (wild-type yeast cells; 100 μg/ml, 24 hours) was 60%, the inhibition of proliferation (H460 cells) was “inhibits the proliferation” and the inhibition of proliferation (IM-9 cells) was “inhibits the proliferation”. The “apoptosis by Hoechst 33342 staining” value (A549 cells [1]) was “more and more cells underwent apoptosis”, the “reduction of H3 phosphorylation (grayscale scanning)” value ([2]; A549, 2 μg/ml) was 28% and the “phosphorylated histone H3 band on western blot” value ([2]; A549, 10 μg/ml) was “do not express any detectable phosphorylated histone H3”. The “reduction of H3 phosphorylation (grayscale scanning)” value ([2]; A549, 10 μg/ml) was 73%, the “levels of phosphorylated histone H3” value [3] was “significant decrease” and the “levels of phosphorylated histone H3” value [4] was “significant decrease”. The inhibition of proliferation (HepG2 cells) was “inhibits the proliferation”, the “growth curve, sensitivity of cell line” value (Hela cells; Hela, 0, 5 or 10 μg/ml, 96 hours, cell counting) was “sensitive” and the “growth curve, sensitivity of cell line” value (MCF-7 cells; MCF-7, 0, 5 or 10 μg/ml, 96 hours, cell counting) was “sensitive”. The “growth curve, sensitivity of cell line” value (A549 cells [5]; A549, 0, 5 or 10 μg/ml, 96 hours, cell counting) was “sensitive”, the “growth inhibition by MTT assay” value (A549 cells [5]) was “most sensitive” and the IC50 ([6]; 25 μM ATP, ATP titration FIG. 3B, read-out: IC50 for Aurora-B at given ATP concentration) was 12.5 µM. For the same molecule, the IC50 ([6]; 25 μM ATP, fitted inhibition curve FIG. 3A, read-out: IC50 for inhibition of Aurora-B kinase activity) was 10.5 µM, the IC50 ([6]; 50 μM ATP, read-out: IC50 for Aurora-B at given ATP concentration) was 16.6 µM and the IC50 ([6]; 75 μM ATP, read-out: IC50 for Aurora-B at given ATP concentration) was 24.5 µM. The IC50 ([6]; 100 μM ATP, read-out: IC50 for Aurora-B at given ATP concentration) was 32.2 µM, the IC50 ([6]; 200 μM ATP, read-out: IC50 for Aurora-B at given ATP concentration) was 53.1 µM and the Ki ([6]; from linear fit of IC50 versus [ATP]) was 6.8 µM. For the same molecule, the “mode of inhibition of Aurora-B kinase” value ([6]; with respect to ATP, 5 ATP concentrations) was “competitive inhibition”, the “growth inhibition of ipl1-321 mutant cells” value ([7]; 5 μg/ml, 24 hours) was 50% and the “growth inhibition of ipl1-321 cells” value [7] was “almost completely”. The “effect on cell cycle” value (A549 cells [8]) was “does not block cell cycle”, the “increase of cells in S phase” value (A549 cells [8]) was 2% and the “percentage of apoptotic cells, treated versus untreated” value (A549 cells [8]; 3 hr) was “almost no difference”. For the same molecule, the “portion of apoptotic cells (sub-G1)” value (A549 cells [8]; 12 hr) was 17.8%, the “portion of apoptotic cells (sub-G1)” value (A549 cells [8]; 24 hr) was 44% and the “portion of apoptotic cells (sub-G1)” value (A549 cells [8]; 48 hr) was 71.7%.

For Cc1cc(O)c2c(c1)[C@@H]1OC(=O)[C@H](CO)N1C1=C2C(=O)c2cccc(O[C@H]3C[C@@H](O)[C@@H](O)[C@H](C)O3)c2C1=O [Jadomycin S, reference compound], the “growth inhibition by MTT assay” value (Hela cells) was “inhibited growth”, the “growth inhibition by MTT assay” value (MCF-7 cells) was “inhibited growth” and the “growth inhibition by MTT assay” value (A549 cells [5]) was “inhibited growth”. For the same molecule, the “inhibitory effect on Aurora-B” value [6] was “no inhibitory activity is detected” and the “growth inhibition of ipl1-321 cells” value [7] was “neither shows inhibitory effect”.

For Cc1cc(O)c2c(c1)[C@@H]1OC(=O)[C@H]([C@H](C)O)N1C1=C2C(=O)c2cccc(O[C@H]3C[C@@H](O)[C@@H](O)[C@H](C)O3)c2C1=O [Jadomycin T, reference compound], the “growth inhibition by MTT assay” value (Hela cells) was “inhibited growth”, the “growth inhibition by MTT assay” value (MCF-7 cells) was “inhibited growth” and the “growth inhibition by MTT assay” value (A549 cells [5]) was “inhibited growth”. The “inhibitory effect on Aurora-B” value [6] was “no inhibitory activity is detected” and the “growth inhibition of ipl1-321 cells” value [7] was “neither shows inhibitory effect”.
